Results: US20250177366A1, “COMPOSITIONS AND METHODS FOR ALLEVIATING PAIN AND REDUCING ADVERSIVENESS OF STIMULI” (UNIVERSITY OF WASHINGTON, priority 2021, published 2025)

Assays:
[1] = system: larval zebrafish; test: Thermal preference assay (28.5° C. vs 37.5° C.), non-sensitized; assay type: in vivo, Zebrafish (Danio rerio)
Procedure: Thermal preference assay. […] Once an entire plate was loaded with fish, the appropriate incubation solution was added. […] Following incubation in all experiments, the choice testing plate was transported to a dual solid-state heat/cool plate (AHP-1200° C. P; Teca) and centered such that half of each arena was positioned over each side of the heat/cool plate. […] Locomotor behavior was recorded using a Canon high-definition video camcorder suspended at a fixed position above the choice testing plate. Each trial was four minutes in duration.
For single-incubation assays (e.g. testing single chemicals), larval zebrafish were caught in 100 μL E2 media and 100 μL of the control (2% DMSO) or test chemical at 2× concentration was added to each well to achieve the final desired concentration. […] The final DMSO concentration in all solutions was 1%.

[2] = system: larval zebrafish; test: Light/dark preference (phototaxis) assay; assay type: in vivo, Zebrafish (Danio rerio); settings: for light/dark preference: last two minutes of each trial, last four trials
Procedure: Following this, whether the effects of AS1 were restricted to somatosensation or were generalizable to other aversive stimuli were tested. Thus, the effects of AS1 on light/dark preference were tested. Zebrafish larvae prefer white light environments to dark environments and this preference is inhibited by anxiolytics, analagous to studies in rodents (Lau et al., Proc. Natl. Acad. Sci. U.S.A 2011; 108:2581-2586; Burgess et al., Curr. Biol. 2010; 20:381-386). To measure light/dark preference, larval zebrafish were placed in a square arena and given the choice between a bright white light and total darkness, and the number of larvae on each side was quantified at 30 second intervals. Five 4-minute trials were performed, where the light and dark sides of the arena were reversed between trials. […] Given the precise control over stimulus luminosity in this assay, the effects of altering the intensity of the dark stimulus were explored next. In this gradient version of the phototaxis assay, larval zebrafish were given the choice between a bright white environment and one of six potential shades of darkness, ranging from light gray to solid black. […] This implies that the valence of non-painful noxious stimuli is precisely encoded in an intensity-dependent manner, and that AS1 exerts its effects in proportion to the intensity of the stimulus.
Light/dark preference (phototaxis) assay. In the light/dark preference assay, randomly-selected 6 dpf larval zebrafish (N of 30 to 40) were carefully pipetted onto a 10 cm square petri dish using a 10 mL pipette pump equipped with a glass wide-bored Pasteur pipet. As much E2 media as possible was carefully removed using the same pipet. For single incubation experiments, 30 mL of 1× solutions of the control or test chemical was added to each petri dish, and fish were incubated for 10 minutes at 28.5° C. For double incubation experiments, 15 mL of 1× solutions containing control (DMSO) or test chemicals was added to the larvae-containing petri dish. Following a ten-minute incubation period, 15 mL of the second incubation solution (1× control or test chemical +/−2× AS1) was added to the petri dish, and the fish were incubated for a second ten minute block. The final concentration of DMSO in all solutions was 1%. In all double-incubation experiments, the final concentration of AS1 was 2.5 μM. These petri dishes were then positioned over a horizontally-oriented computer monitor displaying a PowerPoint presentation. For standard light/dark preference assays, a blank white slide was initially presented for one minute, after which the presentation would automatically advance to a slide in which half of the display was black. The petri dish with larvae was positioned such that exactly half was directly over the dark side, and the other half was directly over the light side. After four minutes, the presentation automatically advanced to a slide in which the black and white halves switched places. A total of five four-minute trials, with the dark/light halves automatically switching position between trials, were recorded. For the gradient phototaxis assay, experiments were performed identically, except that the “dark” half of the powerpoint presentation was one of six shades of gray.
In all experiments, an initial still frame of video was taken during the minute where the blank slide was presented in order to quantify the total number of fish in the experiment. Following this, still frames were taken at 30 second intervals for each trial ([…]), and the number of fish present in the light half of the arena were counted. To generate the graphs that looked at swimming patterns over time in a trial (e.g., FIG. 3D), the average percentage of fish in the light at each time point (T=0, T=30, etc.) was calculated across all five trials. […]

[3] = 28.5 vs 37.5° C., dose-response 0-5 μM

CC(C)c1ccc(C(=O)Nc2ccncc2)cc1 [AS1, 4-propan-2-yl-N-pyridin-4-ylbenzamide]
zone-dependent locomotor activity (swimming velocity) ([1]; 28.5 vs 37.5° C. zones, compared to vehicle-treated larvae): inverted zone-dependent locomotor activity | concentration that eliminates preference for either zone [1, 3]: 1.25 µM | concentrations that induce preference for the 37.5° C. zone [1, 3]: > 2.5 µM | preference in acute heat aversion ([1]; 28.5° vs 37.5° C., 5 μM AS1 (highest dose)): evoked strong preference for the nociceptive stimulus | Reverses 28.5° C. Choice? ([1]; temperature preference 28.5° C. vs 37.5° C., larval zebrafish): Yes | light/dark preference ([2]; 1 μM AS1): significantly prefer the light side of the arena | gradient phototaxis: choice between bright white (shade 1) and darker shades 2-7 ([2]; 2.5 μM AS1): increasingly prefer the contrasting dark shade | light/dark preference ([2]; 2.5 μM AS1): significantly prefer the dark | light/dark preference, dose dependence ([2]; AS1-treated vs vehicle-treated larvae): reversed light/dark preference in a dose-dependent manner
